# Measurements as given in patent US20070149562A1, “OXOPIPERIDINE DERIVATIVES, PREPARATION AND THERAPEUTIC USE THEREOF” (SANOFI-AVENTIS, priority 2004, published 2007).
# Where a name gives a salt, the structure may show the parent alone.
# Key:
# human MC4 receptor [1] = molecular target: T1, human MC4 receptor (Homo sapiens, UniProt P32245); experiment: Affinity assay: displacement of [125I]-[Nle4-D-Phe7]-α-MSH binding to cell membranes (SPA); settings: membranes of CHO-K1 cells expressing human MC4 receptor; radioligand 100 pM; read-out: IC50 with respect to the MC4 receptor
# T1 construct: host or cells: CHO-K1
# Description: This affinity assay is carried out by measuring the binding of [^125I]-[Nle^4-D-Phe^7]-[…]-MSH to cell membranes. The displacement of this radioligand is used to identify inhibitors of the specific binding to recombinant melanocortin receptors.
# For this assay, membranes prepared from CHO-K1 cells expressing the human MC4 receptor at high density (Euroscreen) or membranes, that were purchased (Perkin Elmer Life Sciences, Receptor Biology), of HEK-293 cells expressing hMC3 receptors were used. CHO-K1 cells transfected with the hMC4 receptor gene (Euroscreen) are seeded into DMEM/Nutrient Mix F12 culture medium containing 10% foetal calf serum (Biowhittaker), 1% sodium pyruvate, 1% L-glutamine, 1% non-essential amino acids, 0.4 mg/ml geneticin (G418) and 0.5% PenStrep, these products being provided by Gibco/BR1, except the calf serum. At 80% confluency, the cells are scraped off and the cell pellets are frozen at −80° C.
# A tube of cells (approximately 70×10^6 cells) is thawed on ice and resuspended in 10 ml of binding buffer [25 mM HEPES, pH 7.0, 1 mM MgCl2, 1.5 mM CaCl2, 100 mM NaCl, 1 mM 1,10-phenanthroline and 1 tablet of Complete™ (protease inhibitor from Roche) in 50 ml of buffer]using a polytron for 20 seconds. The suspension is centrifuged for 20 min at 19 500 rpm at 4° C. The supernatant is discarded and the pellet is resuspended in 5 ml of binding buffer. The amount of proteins present in the sample is assayed using a Bradford test, and the concentration is adjusted to 3 ug/25 ul by dilution in binding buffer.
# [^125I]-[Nle^4, D-Phe^7]-[…]-MSH is diluted in binding buffer+0.2% BSA. SPA beads (wheatgerm agglutinin polyvinyltoluene, Amersham Pharmacia Biotech) are hydrated in the binding buffer+0.2% BSA and are then mixed with the cell homogenate so as to obtain 3 μg of cell proteins and 250 ug of beads in 50 ul. […] The nonspecific binding is defined by NDP-DMSH at 10^-7 M. The total binding is measured by the number of counts per minute in the presence of the radioligand alone. […]
# human MC3 receptor = molecular target: T2, human MC3 receptor (Homo sapiens, UniProt P41968); experiment: Functional assay of agonist activity: cAMP formation; type: cell-based; settings: CHO(dhfr-) cells expressing human MC3 receptor, 1 hour incubation, read-out: EC50 with respect to the MC3 receptor
# T2 construct: expressed in transfected cells; host or cells: CHO(dhfr-)
# Description: (§1) A functional assay is used to differentiate between the agonist activity and the antagonist activity. For this, the formation of cyclic adenosine monophosphate (cAMP) generated by activation of the MC3 receptor or of the MC4 receptor is assayed.
# CHO(dhfr-) cells expressing the human MC3 receptor are seeded into MEM Eagle culture medium (Sigma) containing 10% of dialysed calf serum, 1% L-glutamine, 1% sodium pyruvate, 20 mg/500 ml L-proline, 0.3 mg/ml Geneticin and 0.5% PenStrep, these products being provided by Gibco/BR1, except for the dialysed calf serum (Cambrex) and the L-proline (Sigma).
# (§2) The compounds to be tested (diluted in 10% DMSO), in an amount of 10 ul at a concentration of 10 times the final concentration, are added to the plates of cells (final volume=100 ul/well). After incubation for 1 hour (37° C., 5% CO2), the amount of cAMP is assayed using Tropix kits (Appelera) according to the supplier's documentation. The intrinsic activity of the compounds is calculated by comparing the stimulation of cAMP by these compounds to the stimulation induced by 30 nM of NDP MSH (maximum of 100%). The EC50 value for the compounds corresponds to the concentration which produces 50% of the maximum stimulation obtained with this compound.
# human MC4 receptor [2] = molecular target: T1, human MC4 receptor; experiment: as above; type: cell-based; settings: CHO-K1 cells expressing human MC4 receptor, 1 hour incubation, read-out: EC50 with respect to the MC4 receptor
# Description: as §1
# CHO-K1 cells, expressing the human MC4 receptor at a moderate density (Euroscreen), are seeded into DMEM/Nutrient Mix F12 culture medium (Gibco/BR1) containing 10% of foetal calf serum, 0.5% sodium pyruvate, 1% L-glutamine, 1% non-essential amino acids, 200 mg/l hygromycin B and 0.5% PenStrep, these products being provided by Gibco/BR1, except the calf serum (Biowhittaker) and hygromycin B (Sigma).
# as §2
# T1 sequence (P32245 whole entry): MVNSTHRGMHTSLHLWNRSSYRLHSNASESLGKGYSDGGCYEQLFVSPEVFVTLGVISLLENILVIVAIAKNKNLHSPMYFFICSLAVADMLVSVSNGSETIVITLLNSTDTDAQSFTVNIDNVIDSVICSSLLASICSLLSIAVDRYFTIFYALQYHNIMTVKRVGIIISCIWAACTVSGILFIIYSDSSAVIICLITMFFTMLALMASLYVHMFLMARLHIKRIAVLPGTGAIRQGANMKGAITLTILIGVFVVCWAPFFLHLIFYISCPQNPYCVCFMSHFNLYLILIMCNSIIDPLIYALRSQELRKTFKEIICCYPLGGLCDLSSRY
# T2 sequence (P41968 whole entry): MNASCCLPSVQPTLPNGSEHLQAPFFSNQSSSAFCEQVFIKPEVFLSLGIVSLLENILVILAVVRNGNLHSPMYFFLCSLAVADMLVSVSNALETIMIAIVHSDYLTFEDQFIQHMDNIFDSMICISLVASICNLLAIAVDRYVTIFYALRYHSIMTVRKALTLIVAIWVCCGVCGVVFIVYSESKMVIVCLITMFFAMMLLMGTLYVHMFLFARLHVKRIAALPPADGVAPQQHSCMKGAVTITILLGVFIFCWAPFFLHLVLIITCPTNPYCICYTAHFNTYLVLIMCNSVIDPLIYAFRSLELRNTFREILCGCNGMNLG
Compound,IC50 (human MC4 receptor [1]) [nM],EC50 (human MC3 receptor) [nM],EC50 (human MC4 receptor [2]) [nM],melting point [°C]
"O=C([C@@H](Cc1ccc(Cl)cc1)NC1CCOCC1)N1CCC(Cn2cncn2)(C2CCCCC2)CC1 [Compound 2, N-{(1R)-1-(4-chlorobenzyl)-2-[4-cyclohexyl-4-(1H-1,2,4-triazol-1-ylmethyl)piperidin-1-yl]-2-oxoethyl}tetrahydro-2H-pyran-4-amine]",570,110,60,75
"O=C([C@@H](Cc1ccc(Cl)cc1)NC1CCNCC1)N1CCC(Cn2cncn2)(C2CCCCC2)CC1 (as salt: HCl) [Compound 1, N-{(1R)-1-(4-chlorobenzyl)-2-[4-cyclohexyl-4-(1H-1,2,4-triazol-1-ylmethyl)piperidin-1-yl]-2-oxoethyl}piperidin-4-amine]",–,–,–,255
"N[C@H]1CC[C@@H](N[C@H](Cc2ccc(Cl)cc2)C(=O)N2CCC(Cn3cncn3)(C3CCCCC3)CC2)CC1 [Compound 12, cis-N-{(1R)-1-(4-chlorobenzyl)-2-[4-cyclohexyl-4-(1H-1,2,4-triazol-1-ylmethyl)piperidin-1-yl]-2-oxoethyl}cyclohexane-1,4-diamine]",200,100,20,–
"O=C([C@@H](Cc1ccc(Cl)cc1)NC1CCNCC1)N1CCC(Cn2cncn2)(C2CCCCC2)CC1 [Compound 1, N-{(1R)-1-(4-chlorobenzyl)-2-[4-cyclohexyl-4-(1H-1,2,4-triazol-1-ylmethyl)piperidin-1-yl]-2-oxoethyl}piperidin-4-amine]",250,200,50,–

# Next, values leading:
IC50 (human MC4 receptor [1]) [nM],EC50 (human MC3 receptor) [nM],EC50 (human MC4 receptor [2]) [nM],melting point [°C],Compound
–,–,–,> 200,"CS(=O)(=O)N1CCC(N[C@H](Cc2ccc(Cl)cc2)C(=O)N2CCC(Cn3cncn3)(C3CCCCC3)CC2)CC1 (as salt: HCl) [Compound 54, N-{(1R)-1-(4-chlorobenzyl)-2-[4-cyclo-hexyl-4-(1H-1,2,4-triazol-1-ylmethyl)piperidin-1-yl]-2-oxoethyl}-1-(methylsulphonyl)piperidin-4-amine]"
–,–,–,128,"NCC(=O)N[C@H]1CC[C@@H](N[C@H](Cc2ccc(Cl)cc2)C(=O)N2CCC(Cn3cncn3)(C3CCCCC3)CC2)CC1 (as salt: HCl) [Compound 116, N-[cis-4-({(1R)-1-(4-chlorobenzyl)-2-[4-cyclohexyl-4-(1H-1,2,4-triazol-1-ylmethyl)piperidin-1-yl]-2-oxoethyl}amino)cyclohexyl]glycinamide]"
–,–,–,159,"N[C@H]1CC[C@@H](N[C@H](Cc2ccc(Cl)cc2)C(=O)N2CCC(Cn3cncn3)(C3CCCCC3)CC2)CC1 (as salt: HCl) [Compound 12, cis-N-{(1R)-1-(4-chlorobenzyl)-2-[4-cyclohexyl-4-(1H-1,2,4-triazol-1-ylmethyl)piperidin-1-yl]-2-oxoethyl}cyclohexane-1,4-diamine]"
